This experiment addresses hMC5R (Homo sapiens, UniProt P33032). As to the kind of experiment: hMC5R intracellular cAMP accumulation. It is filed as cell-based. The note with it: relative to MT-II. (In general: Changes in cAMP serve as a functional read-out for many G protein-coupled receptors.)

hMC5R, sequence (P33032 whole entry): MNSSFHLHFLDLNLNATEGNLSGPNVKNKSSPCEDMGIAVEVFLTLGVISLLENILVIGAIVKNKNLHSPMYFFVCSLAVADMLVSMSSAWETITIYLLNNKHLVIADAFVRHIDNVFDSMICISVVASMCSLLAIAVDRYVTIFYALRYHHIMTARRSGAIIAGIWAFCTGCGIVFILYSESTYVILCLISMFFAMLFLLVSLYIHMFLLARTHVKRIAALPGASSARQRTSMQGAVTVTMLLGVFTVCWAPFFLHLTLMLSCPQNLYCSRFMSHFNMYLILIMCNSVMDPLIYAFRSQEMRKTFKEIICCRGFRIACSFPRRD

Regarding `N=C(N)NCCC[C@@H]1NC(=O)[C@@H](Cc2ccccc2)NC(=O)[C@H](CC2CCCCC2)NC(=O)c2cc([N+](=O)[O-])ccc2SC[C@@H](C(N)=O)NC(=O)[C@H](Cc2c[nH]c3ccccc23)NC1=O` [compound 2], the “% Act at 10 μM (% of cAMP produced at 10 μM ligand concentration, in relation to MT-II)” value was 0%.
